Measurements as given in US12441768B2, “Compositions and methods for treating endometriosis” (EndoMet Biosciences, Inc., priority 2018, dated 2025).
Where a SMILES comes first, the peptide text is derived from it.

Target: T1, β-catenin (Homo sapiens, UniProt P35222)
T1 sequence (P35222 1-781): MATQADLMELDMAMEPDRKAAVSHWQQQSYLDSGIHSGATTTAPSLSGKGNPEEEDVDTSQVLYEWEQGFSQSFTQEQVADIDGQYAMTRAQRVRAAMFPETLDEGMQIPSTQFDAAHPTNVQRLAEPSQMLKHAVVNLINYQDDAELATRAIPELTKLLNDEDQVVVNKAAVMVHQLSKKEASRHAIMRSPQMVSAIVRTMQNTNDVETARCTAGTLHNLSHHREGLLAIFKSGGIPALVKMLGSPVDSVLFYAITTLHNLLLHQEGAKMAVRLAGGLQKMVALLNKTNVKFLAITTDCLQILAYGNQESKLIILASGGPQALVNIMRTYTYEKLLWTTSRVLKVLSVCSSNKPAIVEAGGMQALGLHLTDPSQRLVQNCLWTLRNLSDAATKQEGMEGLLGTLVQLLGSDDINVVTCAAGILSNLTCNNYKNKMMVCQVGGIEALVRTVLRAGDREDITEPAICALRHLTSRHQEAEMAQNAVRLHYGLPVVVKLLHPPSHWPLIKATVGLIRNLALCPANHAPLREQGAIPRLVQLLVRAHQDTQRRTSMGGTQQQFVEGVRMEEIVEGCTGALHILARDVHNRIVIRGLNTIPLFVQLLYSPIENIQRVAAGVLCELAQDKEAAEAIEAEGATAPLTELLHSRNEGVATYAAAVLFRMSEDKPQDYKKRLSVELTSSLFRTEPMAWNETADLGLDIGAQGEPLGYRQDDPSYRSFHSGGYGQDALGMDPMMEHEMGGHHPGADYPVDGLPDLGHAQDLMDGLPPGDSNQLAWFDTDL
Assay: KD50 measurement using competitive fluorescence polarization (FP) with labelled TCF4
Type: binding
Details: fluorescence polarization, β-catenin; for Kd: read-out: β-Cat FP KD
Source text: Fluorescence polarization (FP) is another method used to analyze protein-ligand interactions. This methodology measures the change in fluorescence light emitted by a labelled compound free vs. conjugated to another compound in solution. Upon binding of the fluorescent molecule to a complex, polarization increases because of limited rotation of the fluorescent tracer. Competitive FP is often utilized in drug screens as it is formatted for high throughput screens in a plate format. This immunoassay is performed by introducing a non-conjugated drug to compete for binding to the labelled competitor-ligand complex, leading to a reduction in polarization. TCF4 protein is utilized for the competitive assay as (1) this protein influences the full activation of the Wnt pathway and (2) shares homology with the β-catenin inhibitors. Exemplary methodology is described in Example 13. Data were analyzed and plotted in Microsoft Excel (Microsoft, Redmond, WA).
5 nM of labelled TCF4 protein was added to solution of 100 nM of β-catenin and incubated at room temperature in 96-well plates (Greiner 96 Flat transparent plates, Millipore Sigma, Carlsbad CA). Varying concentrations of β-catenin inhibitor candidate (SEQ ID NO: 404) were then added in a series of serial dilutions from 10 nM to 30 uM of inhibitor in different wells of the plate. The fluorescence polarization was read by Infinite M1000 (Tecan, Baldwin Park CA) at excitation wavelength of 470 nm and measured at emission wavelength of 520 nm. […] The experiments were performed three times and data were analyzed and plotted in Microsoft Excel (Microsoft, Redmond, WA).

SMILES	β-Cat FP Hill slope	Kd [µM]
CC[C@H](C)[C@@H]1NC(=O)[C@H](CC(C)C)NC(=O)[C@H](Cc2ccccc2)NC(=O)[C@H](Cc2c[nH]c3ccccc23)NC(=O)CCCCCCCCCNC(=O)[C@H](Cc2c[nH]c3ccccc23)NC(=O)[C@H](C)NC(=O)[C@H](CS)NC1=O [compound 250] (HELM PEPTIDE1{A.W.[O=C(CCCCCCCCCN[*:1])[*:2]].W.F.L.I.C}$PEPTIDE1,PEPTIDE1,1:R1-8:R2$$$V2.0)	–	1 to 10
CC[C@H](C)[C@@H]1NC(=O)[C@H](CC(C)C)NC(=O)[C@@H](N)CCCCNC(=O)C[C@@H](C(=O)O)NC(=O)[C@H](Cc2c[nH]c3ccccc23)NC(=O)[C@H](Cc2ccccc2)NC(=O)[C@H](C)NC1=O [compound 251] (HELM PEPTIDE1{K.L.I.A.F.W.D}$PEPTIDE1,PEPTIDE1,1:R3-7:R3$$$V2.0)	–	> 30
CC[C@H](C)[C@@H]1NC(=O)[C@H](CC(C)C)NC(=O)[C@@H](NC(C)=O)CCCCNC(=O)C[C@@H](C(=O)O)NC(=O)[C@H](Cc2c[nH]c3ccccc23)NC(=O)[C@H](Cc2ccccc2)NC(=O)[C@H](C)NC1=O [compound 252] (HELM PEPTIDE1{[ac].K.L.I.A.F.W.D}$PEPTIDE1,PEPTIDE1,2:R3-8:R3$$$V2.0)	–	> 30
CC[C@H](C)[C@@H]1NC(=O)[C@H](CC(C)C)NC(=O)[C@H](Cc2ccccc2)NC(=O)[C@@H](N)CCCCNC(=O)C[C@@H](C(=O)O)NC(=O)[C@H](Cc2c[nH]c3ccccc23)NC(=O)[C@H](Cc2ccccc2)NC(=O)[C@H](C)NC1=O [compound 253] (HELM PEPTIDE1{K.F.L.I.A.F.W.D}$PEPTIDE1,PEPTIDE1,1:R3-8:R3$$$V2.0)	–	> 30
CC[C@H](C)[C@@H]1NC(=O)[C@H](CC(C)C)NC(=O)[C@H](Cc2ccccc2)NC(=O)[C@@H](NC(C)=O)CCCCNC(=O)C[C@@H](C(=O)O)NC(=O)[C@H](Cc2c[nH]c3ccccc23)NC(=O)[C@H](Cc2ccccc2)NC(=O)[C@H](C)NC1=O [compound 254] (HELM PEPTIDE1{[ac].K.F.L.I.A.F.W.D}$PEPTIDE1,PEPTIDE1,2:R3-9:R3$$$V2.0)	–	> 30
CC[C@H](C)[C@H](NC(=O)[C@H](CC(C)C)NC(=O)[C@@H](NC(=O)[C@H](Cc1c[nH]c2ccccc12)NC(C)=O)[C@@H](C)CC)C(=O)N[C@@H](C)C(=O)N[C@@H](Cc1ccccc1)C(=O)N[C@@H](Cc1c[nH]c2ccccc12)C(=O)NCC(=O)O [compound 263] (Ac-WILIAFWG-OH)	3	0.4 to 1

Continued, values first:

β-Cat FP Hill slope	Kd [µM]	SMILES
0.92	0.4 to 1	CC[C@H](C)[C@@H]1NC(=O)[C@H](CC(C)C)NC(=O)[C@H](Cc2ccccc2)NC(=O)[C@H](Cc2c[nH]c3ccccc23)NC(=O)[C@@H](N)CCCCNC(=O)CCCCCNC(=O)C[C@@H](C(=O)O)NC(=O)[C@H](Cc2c[nH]c3ccccc23)NC(=O)[C@H](C)NC(=O)[C@H](CS)NC1=O [compound 249] (HELM PEPTIDE1{K.W.F.L.I.C.A.W.[O=C(O)[C@H](CC(=O)[*:2])N[*:1]].[O=C(CCCCCN[*:1])[*:2]]}$PEPTIDE1,PEPTIDE1,1:R3-10:R2$$$V2.0)
–	> 30	CC[C@H](C)[C@@H]1NC(=O)[C@H](CC(C)C)NC(=O)[C@H](CC2CCCCC2)NC(=O)[C@H](Cc2c[nH]c3ccccc23)NC(=O)[C@@H](NC(C)=O)CCCCNC(=O)C[C@@H](C(=O)O)NC(=O)[C@H](Cc2c[nH]c3ccccc23)NC(=O)[C@H](C)NC(=O)[C@H](CO)NC1=O [compound 255] (HELM PEPTIDE1{[ac].K.W.[Cha].L.I.S.A.W.D}$PEPTIDE1,PEPTIDE1,2:R3-10:R3$$$V2.0)
1.53	1 to 10	CC[C@H](C)[C@@H]1NC(=O)[C@H](CC(C)C)NC(=O)[C@H](Cc2ccccc2)NC(=O)[C@H](Cc2c[nH]c3ccccc23)NC(=O)[C@@H](N)CCCCNC(=O)CCNC(=O)C[C@@H](C(=O)O)NC(=O)[C@H](Cc2c[nH]c3ccccc23)NC(=O)[C@H](C)NC(=O)[C@H](CS)NC1=O [compound 260] (HELM PEPTIDE1{K.W.F.L.I.C.A.W.[O=C(O)[C@H](CC(=O)[*:2])N[*:1]].[bAla]}$PEPTIDE1,PEPTIDE1,1:R3-10:R2$$$V2.0)
